# Several values for one entry are separate records, joined by “and”; a condition that tells them apart may be missing. Identical values can stand only once.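 Exposure lasted 48 hours, with cells grown in 96-well plates and compounds tested at five concentrations. At the GI50, growth is halved. TGI: total growth inhibition.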
# Key:
# Assay in all cases: growth of human tumour cells (NCI), 48 h
# [1] = tested on: MALME-3M melanoma
# [2] = tested on: HS 578T breast
# [3] = tested on: NCI/ADR-RES ovarian
# [4] = tested on: PC-3 prostate
# [5] = tested on: ACHN renal
# [6] = tested on: SK-MEL-5 melanoma
# [7] = tested on: A549 NSCLC
# [8] = tested on: HT29 colon
# [9] = tested on: UACC-62 melanoma
# [10] = tested on: HOP-62 NSCLC
SMILES,GI50 [1],TGI [1],GI50 [2],TGI [2],GI50 [3],TGI [3],GI50 [4],TGI [4],GI50 [5] [nM],TGI [5],GI50 [6] [nM],TGI [6],GI50 [7],TGI [7],GI50 [8] [µM],TGI [8],GI50 [9] [nM],TGI [9],GI50 [10] [µM],TGI [10]
O=C1/C(=C/c2ccc(Cl)cc2)CN(Cc2cn(CCNc3ccnc4cc(Cl)ccc34)nn2)C/C1=C\c1ccc(Cl)cc1,1530 nM,3.14 µM,0.724 µM,13.5 µM,0.406 µM,2.24 µM,0.26 µM,0.776 µM,391,1.21 µM,807,2.08 µM,0.284 µM,0.834 µM,0.231,0.489 µM,528,1.92 µM,0.272,0.729 µM
Nc1nc(Cl)c(N=Nc2ccc(Cl)cc2)c(NCC2(CO)CC(OCc3ccccc3)C2)n1 (centres undefined),17900 nM and 10100 nM,33.3 µM,7.33 µM and 29.1 µM and 8.36 µM,36.2 µM and > 100 µM and > 53.7 µM,6.55 µM and 9.08 µM and 3.98 µM,77.8 µM and > 100 µM and 16.2 µM,42.8 µM and 10.9 µM,77.5 µM and > 100 µM and 26.5 µM,2600,20.3 µM and 3.55 µM and 3.47 µM,–,21 µM and > 100 µM and 38.7 µM,14.7 µM and 62.7 µM and 13.8 µM,51.2 µM and > 100 µM and 32.1 µM,–,20 µM and > 100 µM and 14 µM,–,55.2 µM and > 100 µM and 25.1 µM,–,49.4 µM and > 100 µM and 22.5 µM
Cc1[nH]n(-c2ccc(S(=O)(=O)O)cc2)c(=O)c1N=Nc1ccccc1,–,> 100 µM,–,> 100 µM,–,> 100 µM,–,> 100 µM,–,> 100 µM,–,> 100 µM,–,> 100 µM,–,> 100 µM,–,> 100 µM,–,> 100 µM
C/C1=C\CC[C@@]2(C)O[C@@H]2C[C@@H]2[C@H](C/C(C)=C/CC1)OC(=O)C21CCN=N1 (some centres undefined),–,> 75 µM,> 100 µM,75 µM and > 100 µM,> 100 µM,> 100 µM,> 100 µM,> 100 µM,> 100000,75 µM and > 100 µM,> 100000,75 µM and > 100 µM,> 100 µM,75 µM and > 100 µM,> 100,> 100 µM,> 100000,> 100 µM,> 100,75 µM and > 100 µM
N#Cc1c(-c2ccc(Cl)cc2)c(-c2ccc(Cl)cc2)nn(CCOC(=O)CCC(=O)O)c1=O,–,74.9 µM,–,59.7 µM,–,> 12.9 µM,–,> 48.4 µM,–,> 100 µM,–,2.59 µM,–,> 88.6 µM,–,6.39 µM,–,47.7 µM,–,34.8 µM
CCN(CC)CCCNc1nc2ccccc2c2c(=O)c3cc(Cl)ccc3sc12,1630 nM,3.26 µM,3.13 µM,14.8 µM,2.04 µM,4.99 µM,3.41 µM,16.7 µM,1630,3.22 µM,3110,11.3 µM,2.02 µM,4.52 µM,1.9,3.98 µM,1760,3.39 µM,3.05,15.8 µM
COc1cc(/C=C/C(=O)C(C(=O)/C=C/c2ccc(OC(=O)CCNc3nnc(C)s3)c(OC)c2)C(=O)CCNc2nnc(C)s2)ccc1OC(=O)CCNc1nnc(C)s1,2720 nM,6.51 µM,2.77 µM,9.7 µM,3.87 µM,> 38.8 µM,2.85 µM,15.4 µM,2280,5.22 µM,1870,4.52 µM,2.7 µM,7.87 µM,1.63,3.56 µM,1730,3.57 µM,5.02,> 31.8 µM
O=c1oc2ccc(F)cc2c(=O)n1-c1ccc(Cl)cc1F,403 nM,2.51 µM,0.572 µM,5.77 µM,1.18 µM,9.31 µM,1.5 µM,6.32 µM,700,11.8 µM,290,0.89 µM,2.17 µM,> 100 µM,3.29,> 34.2 µM,330,1.56 µM,1.57,6.53 µM
CO/N=C(\COc1ccc2c(c1)oc(=O)c1cc(OC)ccc12)c1ccc(F)cc1,26700 nM,84.6 µM,29.9 µM,> 100 µM,17.6 µM,35.6 µM,20.9 µM,66.5 µM,16800,32.1 µM,55600,> 100 µM,26.3 µM,94.8 µM,16.7,66.8 µM,21500,73.9 µM,16.4,34.1 µM
Oc1ccc2ccccc2c1C(c1ccc(Cl)cc1)c1c(O)ccc2ccccc12,–,6.71 µM,–,8.62 µM,–,9.46 µM,–,7.7 µM,–,15.4 µM,–,6.93 µM,–,10.8 µM,–,9.78 µM,–,15.1 µM,–,16 µM
O=C(Nc1cccc([N+](=O)[O-])c1)c1ccc2ccccc2c1O,1580 nM,6.28 µM,2.91 µM,> 28.4 µM,5.62 µM,> 86.5 µM,3.87 µM,> 80.7 µM,12200,> 95.4 µM,1750,6.41 µM,6.87 µM,> 100 µM,22,> 100 µM,4220,> 100 µM,10.8,> 100 µM
COc1ccc(N(C)c2nc(Cl)nc3ccn(C)c23)cc1,> 100000 nM,> 100 µM,< 0.01 µM,> 100 µM,< 0.01 µM,> 100 µM,< 0.01 µM,> 100 µM,< 10,> 100 µM,< 10,< 0.01 µM,< 0.01 µM,> 100 µM,< 0.01,0.12 µM,< 10,> 100 µM,< 0.01,> 100 µM
COc1ccc2cc3[n+](cc2c1OC)CCc1cc2c(cc1-3)OCO2,2240 nM and 5100 nM,27.8 µM [middle of 5 runs],–,> 100 µM and 87.1 µM and 40.7 µM,> 100 µM and 323 µM,> 325 µM,6.61 µM,> 100 µM,–,> 100 µM,1260,–,–,> 325 µM,23.7,> 100 µM and > 92.7 µM and 87.6 µM,7240,–,–,> 100 µM and 42.4 µM
O=C(Nc1cccnc1)c1cccc([N+](=O)[O-])c1,> 100000 nM,> 100 µM,> 100 µM,> 100 µM,> 100 µM,> 100 µM,> 100 µM,> 100 µM,> 100000,> 100 µM,> 100000,> 100 µM,> 100 µM,> 100 µM,> 100,> 100 µM,> 100000,> 100 µM,> 100,> 100 µM

# From PubChem BioAssay (NCI)
